{"source": "patent US6399583B1", "about": "“Hybrid anthracyclines from genetically engineered streptomyces galilaeus strains, process for production and uses thereof” (Galilaeus Oy, priority 1998, dated 2002)", "key": {"[1]": {"tested_on": "KLN-205 lung squamous cell carcinoma", "test": "Cytotoxicity assay, ATP detection, KLN-205", "type": "cell-based, mouse", "details": "Mus musculus; KLN-205 cells in vitro; read-out: ED50 KLN-205", "experimental": "(§1) The cytotoxicity tests were performed in 96-well microtiter plates (sterile white plates with clear bottom, Corning Costar Corporation, Cambridge, Mass., USA). The anthracyclines were pipetted into the plates in 10 μl of ethanol, pure ethanol was used for control plates. Daunorubicin and aclarubicin were used as positive controls. When the ethanol had evaporated, the cells were seeded into the plates in 100 μl of appropriate medium. The number of cells seeded per well was 2500 with MES-SA, 3000 with MES-SA/D×5, 3000 with LL/2, 2000 with B16-F0 and B16-F1, 2000 with KLN-205 and 8000 with MLTC-1. The ATP content of the cells was measured after incubating the cells for three days at 37° C. with 5% CO2.\n(§2) The growth medium was removed by turning the plates over, and 200 μl of ATP extraction reagent, Somalyze, were added to the wells. The plates were then incubated for 30 minutes at room temperature. The ATP measurement was performed with Luminoskan luminometer (Labsystems Oy, Helsinki, Finland) at 22° C. 20 μl of ATP monitoring reagent containing luciferin and luciferase was dispensed, and an integral measurement of 10 s with 2 s lag time was performed for each well. All reagents used were supplied by Bio-Orbit Oy, Turku, Finland.\n(§3) The direct luminometer output (in relative light units, RLUS) was used to calculate the cytotoxic effect. This light signal is directly proportional to the amount of […] in a wide range (determined with Bio-Orbit ATP standard, data not shown). On the other hand, the amount of ATP is directly proportional to the amount of living cells (Kangas et al., 1984). The results are expressed as percentages of the control value of untreated cells. An IC50 value (the drug concentration resulting to an ATP signal of 50% of the untreated control signal) was graphically estimated from the % of control vs. drug concentration plot.\n(§4) H075-4a was also tested with several mouse cell lines in vitro (all were purchased from ATCC, Rockville, Md., USA): Lewis lung carcinoma (LL/2) (CRL-1642), B16-F0 melanoma (CRL-6322), B16-F1 melanoma (CRL-6323), KLN-205 lung squamous cell carcinoma (CRL-1453) and MLTC-1 leydig cell tumor (CRL-2065) using daunomycin, aclarubicin and H075-1a (MA 144U1) as references.\n(§5) All cells grew as monolayers and were cultured at 37° C. with 5% CO2 according to ATCC standard instructions for each cell line: LL/2 in Dulbecco's modified Eagle's medium with 4.5 g/l glucose and 10% FCS, B16-F0 and B16-F1 in MEM (Eagle) in Earle's BSS with non-essential amino acids and 10% FCS, KLN-205 in MEM (Eagle) in Earle's BSS with non-essential amino acids and 10% FCS, MLTC-1 in RPMI 1640 with 25 mM HEPES and 10% FBS. All media were purchased from Gibco BRL, the serum was Gibco BRL Foetal Bovine Serum. […]"}, "[2]": {"tested_on": "B16-F1 melanoma", "test": "Cytotoxicity assay, ATP detection, B16-F1", "type": "cell-based, mouse", "details": "Mus musculus; B16-F1 cells in vitro; read-out: ED50 B16-F1", "experimental": "as §1, §2, §3, §4, §5"}, "[3]": {"tested_on": "MLTC-1 leydig cell tumor", "test": "Cytotoxicity assay, ATP detection, MLTC-1", "type": "cell-based, mouse", "details": "Mus musculus, Leydig; MLTC-1 cells in vitro; read-out: ED50 MLTC-1", "experimental": "as §1, §2, §3, §4, §5"}, "[4]": {"tested_on": "MES-SA human uterine sarcoma cells", "test": "Cytotoxicity assay, luminescence ATP detection, MES-SA", "type": "cell-based", "details": "Homo sapiens, 72 h, three days incubation, ATP content, highest concentration 10^-5 M, read-out: ED50 (nM) MES-SA", "experimental": "(§6) The cytotoxicities of the new anthracyclines were tested in vitro with two cell lines: human uterine sarcomas MES-SA (CRL-1976; American Type Culture Collection (ATCC), Rockville, Md., USA) and MES-SA/D×5 (CRL-1977; ATCC, Rockville, Md., USA). MES-SA/D×5 has been developed by growing MES-SA cells in increasing concentrations of doxorubicin (Harker and Sikic, 1985).\n(§7) Monolayer cultures were grown in McCoy's 5A medium with L-glutamine (Gibco BRL) supplemented with 10% FBS (Foetal Bovine Serum, Gibco BRL). No antibiotics were added. As the resistance is stable for at least 20 passages, the MES-SA/D×5 cells were grown without anthracycline selection (Harker and Sikic, 1985). Cells were maintained at 37° C. with 5% CO2 and subcultured every 3-5 days.\nas §1, §2, §3"}, "[5]": {"tested_on": "B16-F0 melanoma", "test": "Cytotoxicity assay, ATP detection, B16-F0", "type": "cell-based, mouse", "details": "Mus musculus, B16F0; B16-F0 cells in vitro; read-out: ED50 B16-F0", "experimental": "as §1, §2, §3, §4, §5"}, "[6]": {"tested_on": "MES-SA/D×5 uterine sarcoma cells (doxorubicin-resistant, MDR)", "test": "Cytotoxicity assay, luminescence ATP detection, MES-SA/D×5", "type": "cell-based, human", "details": "Homo sapiens, 72 h; MES-SA/D×5 cells, three days incubation, ATP content; highest concentration 10^-5 M; read-out: ED50 (nM) MES-SA/D × 5", "experimental": "as §6, §7, §1, §2, §3"}, "[7]": {"tested_on": "L1210 mouse lymphocytic leukemia cells", "test": "Flow cytometry (mode of action), cell cycle phases", "type": "cell-based", "details": "for G1 (%) / G2 (%) / S + M (%) / Cells (1000/ml): L1210 cells, 24 h incubation; for G1 (%): percentage of cells in phase G1; for G2 (%): percentage of cells in phase G2; for S + M (%): percentage of cells in phases S + M; for Cells (1000/ml): starting cell number 46000 cells/ml", "experimental": "L1210 mouse lymphocytic leukemia cells growing in suspension culture were maintained at exponential growth in Dulbecco's modified Eagle's medium with 4.5 g/l glucose and 10% FBS, at 37° C. with 5% CO2. The experiments were started by adding the ethanol-dissolved anthracyclines, in amounts yielding to the appropriate final concentrations, to 25 cm^2 cell culture flasks. After the ethanol had evaporated, 5 ml of an approximately 50 000 cells per ml suspension was added to the flasks. Flow cytometric analysis was made of the original cell suspension and after one, two and three days incubation with or without the drugs.\nCells were prepared for flow cytometric DNA analysis according to the method of Vindelov et al. (1985). The analysis was performed with an Epics XL flow cytometer (Coulter Corporation, Miami, Fla.). Samples were illuminated with a […] air-cooled argon ion laser (488 nm) and the fluorescence of propidium iodide was detected through 620-nm band pass filter. The number of cells in each sample was separately counted by adding an internal calibrator (50 μl of a solution containing 1×10^6 Fluoresbrite beads/ml) to 50 μl of cell suspension.\nBased on the flow cytometric studies, the cell cycle phases for the cells studied could be detected. Phase G1 is the stage for RNA and protein synthesis, but not for replication. Transition from phase G1 to phase S means the initiation of replication, and the phase will last until all of the DNA has been replicated. The period from phase S up to mitosis (M) is phase G2."}, "[8]": {"tested_on": "Lewis lung carcinoma (LL/2)", "test": "Cytotoxicity assay, ATP detection, LL/2", "type": "cell-based, mouse", "details": "Mus musculus; LL/2 cells in vitro; read-out: ED50 LL/2", "experimental": "as §1, §2, §3, §4, §5"}, "[9]": {"tested_on": "SK-N-MC", "test": "Cytotoxicity assay, ATP detection, SK-N-MC", "type": "cell-based", "details": "SK-N-MC cells in vitro; read-out: ED50 SK-N-MC"}, "[10]": {"tested_on": "MES-SA/D×5 uterine sarcoma cells (doxorubicin-resistant, MDR)", "details": "relative to MES-SA; Harker and Sikic, 1985; cited from earlier work"}}}
{"smiles": "CC[C@@]1(O)C[C@H](O[C@H]2C[C@H](N(C)C)[C@H](O[C@H]3C[C@H](O)[C@H](O[C@H]4CCC(=O)[C@H](C)O4)[C@H](C)O3)[C@H](C)O2)c2c(cc3c(c2O)C(=O)c2c(O)cccc2C3=O)[C@H]1C(=O)OC", "note": "[Aclarubicin]", "values": [{"measurement": "EC50", "setting": "[1]", "result": 12, "unit": "nM"}, {"measurement": "EC50", "setting": "[2]", "result": 4, "unit": "nM"}, {"measurement": "EC50", "setting": "[3]", "result": 70, "unit": "nM"}, {"measurement": "EC50", "setting": "[4]", "result": 2, "unit": "nM"}, {"measurement": "EC50", "setting": "[5]", "result": 3, "unit": "nM"}, {"measurement": "EC50", "setting": "[6]", "result": 12, "unit": "nM"}, {"measurement": "G1 (%)", "setting": "[7]; concentration 1 × 10^−8M", "result": 43, "unit": "%"}, {"measurement": "G2 (%)", "setting": "[7]; concentration 1 × 10^−8M", "result": 14, "unit": "%"}, {"measurement": "S + M (%)", "setting": "[7]; concentration 1 × 10^−8M", "result": 43, "unit": "%"}, {"measurement": "Cells (1000/ml)", "setting": "[7]; concentration 1 × 10^−8M", "result": "101 1000/ml"}, {"measurement": "G1 (%)", "setting": "[7]; concentration 3.3 × 10^−8M", "result": 47, "unit": "%"}, {"measurement": "G2 (%)", "setting": "[7]; concentration 3.3 × 10^−8M", "result": 29, "unit": "%"}, {"measurement": "S + M (%)", "setting": "[7]; concentration 3.3 × 10^−8M", "result": 24, "unit": "%"}, {"measurement": "Cells (1000/ml)", "setting": "[7]; concentration 3.3 × 10^−8M", "result": "78 1000/ml"}, {"measurement": "cell cycle phase in which cells are arrested", "setting": "[7]; flow cytometric DNA analysis", "result": "phase G1"}, {"measurement": "EC50", "setting": "[8]", "result": 5, "unit": "nM"}, {"measurement": "EC50", "setting": "[9]", "result": 9, "unit": "nM"}]}
{"smiles": "COc1cccc2c1C(=O)c1c(O)c3c(c(O)c1C2=O)C[C@@](O)(C(=O)CO)C[C@@H]3O[C@H]1C[C@H](N)[C@H](O)[C@H](C)O1", "note": "[doxorubicin]", "values": [{"measurement": "resistance of MES-SA/D×5 variant to doxorubicin", "setting": "[10]", "result": 100, "unit": "fold"}]}
